This note sets out measurements from patent publication US10781214B2, “Kinase inhibitor against wild-type and mutant EGFR” (PRECEDO PHARMACEUTICALS CO., LTD, priority 2015, dated 2020).

Each structure is given as a SMILES string. Bounds are passed on as bounds.

Format in all cases: cell-based
In experiment [1] the test system is BaF3-TEL-EGFR (stably expressing wild-type EGFR kinase). The experiment can be described thus: Cell growth, Cell Titer-Glo, 72 h: BaF3-TEL-EGFR. As to conditions: Mus musculus, BaF3-TEL-EGFR cells, read-out: GI50. The source says: (§1) In addition, this example further uses: mouse BaF3-TEL-EGFR (stably expressing wild-type EGFR kinase), mouse BaF3-TEL-EGFR-L858R (stably expressing EGFR L858R mutant kinase), mouse BaF3-TEL-EGFR-T790M (stably expressing EGFR T790M mutant kinase), mouse BaF3-FL-EGFR-DeI19 (stably expressing EGFR delE746_A750 mutant kinase), mouse BaF3-FL-EGFR-T790M-L858R (stably expressing EGFR T790M/L858R mutant kinase), mouse BaF3/P210 (stably expressing bcr/abl˜(P210) mutant kinase), mouse BaF3-TEL-ABL-T315I (stably expressing ABLT315I mutant kinase), mouse BaF3-FLT3-ITD (stably expressing FLT3/ITD mutant kinase), mouse BaF3-TEL-JAK2 (stably expressing JAK2 kinase), mouse BaF3-TEL-JAK3 (stably expressing JAK3 kinase), mouse BaF3-TPR-MET (stably expressing MET kinase), mouse BaF3-TEL-BLK (stably expressing BLK kinase), mouse BaF3-TEL-ABL (stably expressing ABL kinase), mouse BaF3-TEL-BMX (stably expressing BMX kinase), mouse BaF3-TEL-ALK (stably expressing ALK kinase). The above cell lines were all constructed by our laboratory according to the following method: the kinase region sequences of human […], EGFR L858R, EGFR T790M, EGFR delE746_A750, EGFR T790M/L858R, bcr/abl˜(P210), ABL T315I, FLT3/ITD, JAK2, JAK3, MET, BLK, ABL, BMX, ALK were amplified respectively by PCR, inserted respectively into MSCV-Puro vectors harboring N-terminal fragment and/or NPM fragment and/or TPR fragment (Clontech), then the vectors were stably transfected into mouse BaF3 cells by retrovirus methods and growth factor IL-3 was removed, eventually obtaining cell lines that are transferred protein (EGFR, EGFR L858R, EGFR T790M, EGFR delE746_A750, EGFR T790M/L858R, bcr/abl˜(P210), ABL T315I, FLT3/ITD, JAK2, JAK3, MET, BLK, ABL, BMX, ALK)-dependent.
(§2) The cells were incubated for 72 h, and then the number of viable cells was determined via quantitative determination with a microplate reader by using Cell Titer-Glo® (Promega, the USA) Luminescent Cell Viability Assay kit.

Experiment [2] concerns NCI-H3255 (expressing EGFR L858R mutant gene). The experiment can be described thus: Cancer cell growth, Cell Titer-Glo, 72 h: NCI-H3255. As to conditions: Homo sapiens; NCI-H3255 cells, 72 h; read-out: GI50.
Source text: (§3) Compounds of the present invention were further evaluated for their selectivity in inhibiting proliferation of cancer cells by testing effects of the novel kinase inhibitors on proliferation of cancer cells. In the examples the following cells were selected: human non-small cell lung cancer cell NCI-H1975 (expressing EGFR L858R/T790M double-mutant gene), human-derived non-small cell lung cancer cell PC-9 (expressing EGFR delE746_A750 mutant gene), human-derived non-small cell lung cancer cell HCC827 (expressing EGFR delE746_A750 mutant gene), human lung adenocarcinoma cell HCC4006 (expressing EGFR delE746_A750 mutant gene), human non-small cell lung cancer cell NCI-H3255 (expressing EGFR L858R mutant gene), human skin squamous carcinoma cell A431 (expressing wild-type EGFR gene), human non-small cell lung cancer cell A549 (expressing wild-type EGFR gene), human non-small cell lung cancer cell NCI-H460 (expressing wild-type EGFR gene), human non-small cell lung cancer cell NCI-H2122 (expressing wild-type EGFR gene), Chinese hamster ovary (CHO) cell (Cricetulus griseus, hamster, Chinese, ovary), Chinese hamster lung cell (CHL), mouse pro-B cell BaF3. The cells above were all purchased from (USA).
as §2

Experiment [3] concerns mouse pro-B cell BaF3. The experiment can be described thus: Cell growth, Cell Titer-Glo, 72 h: BaF3. As to conditions: BaF3 cells, 72 h, read-out: GI50.
Source text: as §3, §2

Experiment [4] concerns PC-9 (expressing EGFR delE746_A750 mutant gene). The experiment can be described thus: Cancer cell growth, Cell Titer-Glo, 72 h: PC-9. As to conditions: Homo sapiens; PC-9 cells, 72 h; read-out: GI50.
Source text: as §3, §2

Experiment [5] relates to NCI-H1975 (expressing EGFR L858R/T790M double-mutant gene). The experiment can be described thus: Cancer cell growth, Cell Titer-Glo, 72 h: NCI-H1975. As to conditions: Homo sapiens; NCI-H1975 cells, 72 h; read-out: GI50.
Source text: as §3, §2

The test system of experiment [6] is BaF3-FL-EGFR-T790M-L858R (stably expressing EGFR T790M/L858R mutant kinase). The experiment can be described thus: Cell growth, Cell Titer-Glo, 72 h: BaF3-FL-EGFR-T790M-L858R. As to conditions: Mus musculus, BaF3-FL-EGFR-T790M-L858R cells.
Source text: as §1, §2

Experiment [7] relates to A549 (expressing wild-type EGFR gene). The experiment can be described thus: Cancer cell growth, Cell Titer-Glo, 72 h: A549. As to conditions: Homo sapiens; A549 cells, 72 h; read-out: GI50.
Source text: as §3, §2

The test system of experiment [8] is A431 (expressing wild-type EGFR gene). Put plainly: Cancer cell growth, Cell Titer-Glo, 72 h: A431. As to conditions: Homo sapiens, A-431; A431 cells, 72 h; read-out: GI50.
Source text: as §3, §2

As to `C=CC(=O)N1CCC[C@@H](n2nc(-c3ccc(OCc4cccc(F)c4)c(C)c3)c3c(N)ncnc32)C1` [Compound 14, (R)-1-(3-(4-amino-3-(3-methyl-4-((3-fluorobenzyl)oxy)phenyl)-1H-pyrazolo[3,4-d]pyrimidin-1-yl)piperidin-1-yl)prop-2-en-1-one], the GI50 is 1.4 µM in experiment [1]; 0.009 µM in experiment [2]; 2.5 µM in experiment [3]; 0.016 µM in experiment [4]; 0.038 µM in experiment [5]; < 0.0003 µM in experiment [6].

As for `C=CC(=O)N1CCC[C@@H](n2nc(-c3ccc(OCc4cccc(F)c4)c(C#N)c3)c3c(N)ncnc32)C1` [Compound 16, (R)-1-(3-(4-amino-3-(3-cyano-4-((3-fluorobenzyl)oxy)phenyl)-1H-pyrazolo[3,4-d]pyrimidin-1-yl)piperidin-1-yl)prop-2-en-1-one], the GI50 was > 10 µM in experiment [1]; 0.028 µM in experiment [2]; > 10 µM in experiment [3]; 0.051 µM in experiment [4]; 0.052 µM in experiment [6].

On to `C=CC(=O)N1CCC[C@@H](n2nc(-c3ccc(OCc4ccccc4F)c(Cl)c3)c3c(N)ncnc32)C1` [Compound 18, (R)-1-(3-(4-amino-3-(3-chloro-4-((2-fluorobenzyl)oxy)phenyl)-1H-pyrazolo[3,4-d]pyrimidin-1-yl)piperidin-1-yl)prop-2-en-1-one], for which the GI50 is 4.2 µM in experiment [1]; 0.02 µM in experiment [2]; 8.5 µM in experiment [3]; 0.014 µM in experiment [4]; 0.001 µM in experiment [6].

`C=CC(=O)N1CCC[C@@H](n2nc(-c3ccc(OCc4cccc(F)c4)nc3)c3c(N)ncnc32)C1` [Compound 19, (R)-1-(3-(4-amino-3-(6-((3-fluorobenzyl)oxy)pyridin-3-yl)-1H-pyrazolo[3,4-d]pyrimidin-1-yl)piperidin-1-yl)prop-2-en-1-one]: the GI50 in experiment [2], in experiment [3], in experiment [4] and in experiment [5] was > 10 µM in each case.

On to `C=CC(=O)N1CCC[C@@H](n2nc(-c3ccc(CN4CCN(C)CC4)cc3)c3c(N)ncnc32)C1` [Compound 20], for which the GI50 was 4.9 µM in experiment [2]; > 10 µM in experiment [3]; 7 µM in experiment [4]; > 10 µM in experiment [5]; > 10 µM in experiment [7]; > 10 µM in experiment [6].

Regarding `C=CC(=O)N1CCC[C@@H](n2nc(-c3ccc(OCc4cc(F)ccc4F)c(Cl)c3)c3c(N)ncnc32)C1` [Compound 23, (R)-1-(3-(4-amino-3-(3-chloro-4-((2,5-difluorobenzyl)oxy)phenyl)-1H-pyrazolo[3,4-d]pyrimidin-1-yl)piperidin-1-yl)prop-2-en-1-one], the GI50 in experiment [2] is < 0.0003 µM; in experiment [3], 4.3 µM; in experiment [4], 0.007 µM; in experiment [5], 0.007 µM; in experiment [7], 3.8 µM; in experiment [6], < 0.0003 µM.

Regarding `C=CC(=O)N1CCC[C@@H](n2nc(-c3ccc(OCc4cccc(F)c4)cc3F)c3c(N)ncnc32)C1` [Compound 24, (R)-1-(3-(4-amino-3-(2-fluoro-4-((3-fluorobenzyl)oxy)phenyl)-1H-pyrazolo[3,4-d]pyrimidin-1-yl)piperidin-1-yl)prop-2-en-1-one], the GI50 was < 0.0003 µM in experiment [2]; 1.9 µM in experiment [3]; 0.006 µM in experiment [4]; 1.6 µM in experiment [5]; > 10 µM in experiment [7]; < 0.0003 µM in experiment [6].

Take `C=CC(=O)N1CCC[C@@H](n2nc(-c3ccc(OCc4nccs4)c(Cl)c3)c3c(N)ncnc32)C1` [Compound 28, (R)-1-(3-(4-amino-3-(3-chloro-4-(thiazol-2-ylmethoxy)phenyl)-1H-pyrazolo[3,4-d]pyrimidin-1-yl)piperidin-1-yl)prop-2-en-1-one]: the GI50 was 2.8 µM in experiment [1]; < 0.0003 µM in experiment [2]; 9.8 µM in experiment [3]; > 10 µM in experiment [8]; 0.01 µM in experiment [4]; 0.008 µM in experiment [5]. In addition, the results for the GI50 in experiment [7] and in experiment [6] were > 10 µM and 0.002 µM, respectively.

As to `C=CC(=O)N1CCC[C@@H](n2nc(-c3ccc(OCc4ccc(C)nc4)c(Cl)c3)c3c(N)ncnc32)C1` [Compound 30, (R)-1-(3-(4-amino-3-(3-chloro-4-((6-methylpyridin-3-yl)methoxy)phenyl)-1H-pyrazolo[3,4-d]pyrimidin-1-yl)piperidin-1-yl)prop-2-en-1-one], the GI50 is 3.3 µM in experiment [1]; 0.036 µM in experiment [2]; > 10 µM in experiment [3]; > 10 µM in experiment [8]; 0.038 µM in experiment [4]; 0.003 µM in experiment [5]. Moreover, the GI50 in experiment [7] is > 10 µM; in experiment [6], 0.002 µM.

As to `C=CC(=O)N1CCC[C@@H](n2nc(-c3ccc(F)c(Cl)c3)c3c(N)ncnc32)C1` [Compound 31, (R)-1-(3-(4-amino-3-(3-chloro-4-flurophenyl)-1H-pyrazolo[3,4-d]pyrimidin-1-yl)piperidin-1-yl)prop-2-en-1-one], the concentration for 50% growth inhibition (GI50) in experiment [1] was 2.2 µM; in experiment [2] it was 0.043 µM; in experiment [3], > 10 µM; in experiment [8], > 10 µM; in experiment [4], 0.009 µM; in experiment [5], 0.095 µM. Further, the GI50 in experiment [7] was > 10 µM; in experiment [6] it was 0.053 µM.

Take `CN(C)C/C=C/C(=O)N1CCC[C@@H](n2nc(-c3ccc(F)c(Cl)c3)c3c(N)ncnc32)C1` [Compound 32, (R)-1-(3-(4-amino-3-(3-chloro-4-flurophenyl)-1H-pyrazolo[3,4-d]pyrimidin-1-yl)piperidin-1-yl)-4-(dimethylamino)but-2-en-1-one]: the GI50 in experiment [1] was 0.69 µM; in experiment [2] it was 0.33 µM; in experiment [3], 4.5 µM; in experiment [8], 3.9 µM; in experiment [4], 0.17 µM; in experiment [5], 0.71 µM. In addition, the GI50 was > 10 µM in experiment [7] and 0.13 µM in experiment [6].

On to `C=CC(=O)N1CCC[C@@H](n2nc(-c3ccc(OCc4ccccn4)c(C(F)(F)F)c3)c3c(N)ncnc32)C1` [Compound 35, (R)-1-(3-(4-amino-3-(3-trifluoromethyl-4-(pyridin-2-ylmethoxy)phenyl)-1H-pyrazolo[3,4-d]pyrimidin-1-yl)piperidin-1-yl)prop-2-en-1-one], for which the GI50 in experiment [1] is 3.6 µM; in experiment [2], 0.046 µM; in experiment [3] it was > 10 µM; in experiment [8] it was > 10 µM; in experiment [4] it was 0.18 µM; in experiment [5] it was 0.056 µM. For the same compound, the GI50 is 3.1 µM in experiment [7] and < 0.0003 µM in experiment [6].

`C=CC(=O)Nc1cc(Cn2nc(-c3ccc(F)c(Cl)c3)c3c(N)ncnc32)ccc1F` [Compound 38]: the GI50 in experiment [1] was 6.6 µM; in experiment [2], 3.8 µM; in experiment [3], 4.6 µM; in experiment [8], 8.7 µM; in experiment [4] it was 1.7 µM; in experiment [5], 5.1 µM. The GI50 in experiment [7] came to 2.8 µM.
